Measured values from patent US5225607A, “Insecticidal ethers” (Imperial Chemical Industries PLC, priority 1985, dated 1993).

Legend:
Type in all cases: in vivo
Tetranychus urticae = experiment: Insecticidal/acaricidal test, Tetranychus urticae (spider mites - adult), contact; settings: 72 h, French bean leaf, 3 days, read-out: grading of mortality, TU
Experimental: (§1) The activity of the Product was determined using a variety of insect and acarine pests. The Product was used in the form of liquid preparations containing 500, 250 or 100 parts per million (ppm) by weight of the Product. The preparations were made by dissolving the Product in acetone and diluting the solutions with water containing 0.01% by weight of a wetting agent sold under the trade name "LISSAPOL" NX until the liquid preparations contained the required concentratio of the Product. "Lissapol" is a Registered Trade Mark.
(§2) The test procedure adopted with regard to each pest was basically the same and comprised supporting a number of the pests on a medium which was usually a host plant or a foodstuff on which the pests feed, and treating either or both the pests and the medium with the preparations. The mortality of the pests was then assessed at periods usually varying from one to three days after the treatment.
(§3) The results of the tests are given in Table IV for each of the Products, at the rate in parts per million given in the second column as a grading of mortality designated as A, B or C wherein A indicates 80-100% mortality or knockdown (70-100% in the case of Spodoptera exigua), B indicates 50-79% mortality or knockdown (50-69% in the case of Spodoptera exigua) and C indicates less than 50% mortality or knockdown.
(§4) In Table IV the pest organism used is designated by a letter code and the pest species, the support medium or food, and the type and duration of test is given in Table III.

Myzus persicae = experiment: Insecticidal test, Myzus persicae (aphids), contact; settings: 72 h, Chinese Cabbage leaf, 3 days, read-out: grading of mortality, MP
Experimental: as §1, §2, §3, §4

Nilaparvata lugens = experiment: Insecticidal test, Nilaparvata lugens (brown planthopper), contact; settings: 72 h, Cabbage leaf, 3 days, read-out: grading of mortality, NL
Experimental: as §1, §2, §3, §4

Musca domestica [1] = experiment: Knockdown test, Musca domestica (houseflies - adults); settings: cotton wool/sugar, 4 hours, read-out: grading of knockdown, MD/KD
Experimental: as §1, §2
In the case of the species Musca domestica (housefly), additional tests to determine the knockdown effect of the compounds were performed.
as §3, §4

Musca domestica [2] = experiment: Insecticidal test, Musca domestica (houseflies - adults), contact; settings: 24 h, cotton wool/sugar, 1 day, read-out: grading of mortality, MD
Experimental: as §1, §2, §3, §4

Blattella germanica = experiment: Insecticidal test, Blattella germanica (cockroach nymphs), residual; settings: 72 h, plastic pot, 3 days, read-out: grading of mortality, BG
Experimental: as §1, §2, §3, §4

Heliothis virescens = experiment: whole plant or invertebrate; settings: in Gossypium hirsutum, 72 h, read-out: grading of mortality, HV
Experimental: as §1, §2, §3, §4

Diabrotica balteata = experiment: Insecticidal test, Diabrotica balteata (rootworm larvae), residual; settings: 72 h, filter paper/maize seed, 3 days, read-out: grading of mortality, DB
Experimental: as §1, §2, §3, §4

| Structure (SMILES) | mortality at 500 ppm (Tetranychus urticae) [%] | mortality at 500 ppm (Myzus persicae) [%] | mortality at 500 ppm (Nilaparvata lugens) [%] | pest or weed control at 500 ppm (Musca domestica [1]) [%] | mortality at 500 ppm (Musca domestica [2]) [%] | mortality at 500 ppm (Blattella germanica) [%] | mortality at 500 ppm (Heliothis virescens) [%] | mortality at 500 ppm (Diabrotica balteata) [%] | further results |
| --- | --- | --- | --- | --- | --- | --- | --- | --- | --- |
| FC(F)(F)Oc1ccc(C(F)(COCc2cccc(Oc3ccccc3)c2)C(F)(F)F)cc1 (centres unmarked) [Compound 82, 1,1,1,2-Tetrafluoro-2-(4-trifluoromethoxyphenyl)-3-(3-phenoxybenzyloxy)propane] | < 50 | 80 to 100 | < 50 | 80 to 100 | 80 to 100 | 80 to 100 | 80 to 100 | 80 to 100 | – |
| CCOc1ccc(C(Cl)(COCc2coc(Cc3ccccc3)c2)C(F)(F)F)cc1 (centres unmarked) [Compound 45, 1,1,1-Trifluoro-2-chloro-2-(4-ethoxyphenyl)-3-(5-benzyl-3-furanylmethyloxy)propane] | – | – | – | – | – | – | – | – | mortality at 250 ppm (Tetranychus urticae): 50 to 79%; mortality at 250 ppm (Myzus persicae): < 50%; mortality at 250 ppm (Nilaparvata lugens): < 50%; pest or weed control at 250 ppm (Musca domestica [1]): 80 to 100%; mortality at 250 ppm (Musca domestica [2]): < 50%; mortality at 250 ppm (Blattella germanica): < 50%; mortality at 250 ppm (Heliothis virescens): < 50%; mortality at 250 ppm (Diabrotica balteata): < 50% |
| CCOc1ccc(C(Cl)(COCc2cccc(Oc3ccccc3)c2)C(F)(F)F)cc1 (centres unmarked) [Compound 38, 1,1,1-trifluoro-2-chloro-2-(4-ethoxyphenyl)-3-(3-phenoxybenzyloxy)propane] | – | – | – | – | – | – | – | – | mortality at 100 ppm (Tetranychus urticae): < 50%; mortality at 100 ppm (Myzus persicae): 80 to 100%; mortality at 100 ppm (Nilaparvata lugens): 50 to 79%; pest or weed control at 100 ppm (Musca domestica [1]): < 50%; mortality at 100 ppm (Musca domestica [2]): 80 to 100%; mortality at 100 ppm (Blattella germanica): 80 to 100%; mortality at 100 ppm (Heliothis virescens): 80 to 100%; mortality at 100 ppm (Diabrotica balteata): < 50% |
| FC(F)(F)C(COCc1cccc(Oc2ccccc2)c1)c1ccc(Cl)cc1 (centres unmarked) [Compound 16, 1,1,1-Trifluoro-2-(4-chlorophenyl)-3-(3-phenoxybenzyloxy)propane] | – | – | – | – | – | – | – | – | mortality at 100 ppm (Tetranychus urticae): < 50%; mortality at 100 ppm (Myzus persicae): 80 to 100%; mortality at 100 ppm (Nilaparvata lugens): 80 to 100%; pest or weed control at 100 ppm (Musca domestica [1]): 80 to 100%; mortality at 100 ppm (Musca domestica [2]): 80 to 100%; mortality at 100 ppm (Blattella germanica): 80 to 100%; mortality at 100 ppm (Heliothis virescens): 80 to 100%; mortality at 100 ppm (Diabrotica balteata): 80 to 100% |
| COc1ccc(C(COCc2cccc(Oc3ccccc3)c2)C(F)(F)F)cc1 (centres unmarked) [Compound 30, 1,1,1-Trifluoro-2-(4-methoxyphenyl)-3-(3-phenoxybenzyloxy)propane] | < 50 | < 50 | 80 to 100 | 80 to 100 | 80 to 100 | 80 to 100 | 80 to 100 | 80 to 100 | – |
| CCOc1ccc(C(Cl)(COCc2cccc(-c3ccccc3)c2C)C(F)(F)F)cc1 (centres unmarked) [Compound 46, 1,1,1-Trifluoro-2-chloro-2-(4-ethoxyphenyl)-3-(2-methyl-3-phenylbenzyloxy)propane] | < 50 | < 50 | < 50 | 80 to 100 | < 50 | < 50 | < 50 | < 50 | – |
| Fc1ccc(COC=C(c2ccc3c(c2)CCC3)C(F)(F)F)cc1Oc1ccccc1 [Compound 459, 1,1,1-trifluoro-2-(5-indanyl)-3-(3-phenoxy-4-fluorobenzyloxy)prop-2-ene] | 80 to 100 | < 50 | < 50 | 50 to 79 | < 50 | < 50 | < 50 | 80 to 100 | – |
| FC(F)(F)Oc1ccc(C(Cl)(COCc2cccc(Oc3ccccc3)c2)C(F)(F)F)cc1 (centres unmarked) [Compound 59, 1,1,1-Trifluoro-2-chloro-2-(4-trifluoromethoxyphenyl)-3-(3-phenoxybenzyloxy)propane] | – | – | – | – | – | – | – | – | mortality at 100 ppm (Tetranychus urticae): 80 to 100%; mortality at 100 ppm (Myzus persicae): < 50%; mortality at 100 ppm (Nilaparvata lugens): 80 to 100%; pest or weed control at 100 ppm (Musca domestica [1]): 80 to 100%; mortality at 100 ppm (Musca domestica [2]): 80 to 100%; mortality at 100 ppm (Blattella germanica): 80 to 100%; mortality at 100 ppm (Heliothis virescens): 80 to 100%; mortality at 100 ppm (Diabrotica balteata): 80 to 100% |
| CCOc1ccc(C(COCc2cccc(-c3ccccc3)c2C)C(F)(F)F)cc1 (centres unmarked) [Compound 7, 1,1,1-Trifluoro-2-(4-ethoxyphenyl)-3-(2-methyl-3-phenylbenzyloxy)propane] | 80 to 100 | 80 to 100 | 80 to 100 | 80 to 100 | 80 to 100 | 80 to 100 | < 50 | 80 to 100 | – |
| FC(F)(F)Oc1ccc(C(=COCc2cccc(Oc3ccccc3)c2)C(F)(F)F)cc1 [Compound 463, 1,1,1-trifluoro-2-(4-trifluoromethoxyphenyl)-3-(3-phenoxybenzyloxy)prop-2-ene] | < 50 | 80 to 100 | < 50 | < 50 | < 50 | 80 to 100 | 80 to 100 | 80 to 100 | – |
| Fc1ccc(COCC(c2ccc3c(c2)CCC3)C(F)(F)F)cc1Oc1ccccc1 (centres unmarked) [Compound 19, 1,1,1-Trifluoro-2-(5-indanyl)-3-(3-phenoxy-4-fluorobenzyloxy)propane] | – | – | – | – | – | – | – | – | mortality at 250 ppm (Tetranychus urticae): < 50%; mortality at 250 ppm (Myzus persicae): 80 to 100%; mortality at 250 ppm (Nilaparvata lugens): 80 to 100%; pest or weed control at 250 ppm (Musca domestica [1]): 80 to 100%; mortality at 250 ppm (Musca domestica [2]): 80 to 100%; mortality at 250 ppm (Blattella germanica): 80 to 100%; mortality at 250 ppm (Heliothis virescens): 80 to 100%; mortality at 250 ppm (Diabrotica balteata): 80 to 100% |
| FC(F)(F)Oc1ccc(C(COCc2cccc(Oc3ccccc3)c2)C(F)(F)F)cc1 (centres unmarked) [Compound 27, 1,1,1-Trifluoro-2-(4-trifluoromethoxyphenyl)-3-(3-phenoxybenzyloxy)propane] | – | – | – | – | – | – | – | – | mortality at 100 ppm (Tetranychus urticae): 80 to 100%; mortality at 100 ppm (Myzus persicae): 80 to 100%; mortality at 100 ppm (Nilaparvata lugens): 80 to 100%; pest or weed control at 100 ppm (Musca domestica [1]): < 50%; mortality at 100 ppm (Musca domestica [2]): 80 to 100%; mortality at 100 ppm (Blattella germanica): 80 to 100%; mortality at 100 ppm (Heliothis virescens): 80 to 100%; mortality at 100 ppm (Diabrotica balteata): 80 to 100% |
| CCCc1ccc(C(=COCc2ccc(F)c(Oc3ccccc3)c2)C(F)(F)F)cc1 [Compound 460, 1,1,1-trifluoro-2-(4-n-propylphenyl)-3-(3-phenoxy-4-fluorobenzyloxy)prop-2-ene] | < 50 | < 50 | 50 to 79 | < 50 | < 50 | 80 to 100 | < 50 | 50 to 79 | – |
| CCOc1ccc(C(COCc2ccc(F)c(Oc3ccc(Cl)cc3)c2)C(F)(F)F)cc1 (centres unmarked) [Compound 5, 1,1,1-Trifluoro-2-(4-ethoxyphenyl)-3-(3-(4-chlorophenoxy)4-fluorobenzyloxy)propane] | 50 to 79 | 80 to 100 | 80 to 100 | 80 to 100 | 80 to 100 | 80 to 100 | 80 to 100 | 80 to 100 | – |
| CCOc1ccc(C(COCc2cccc(Oc3ccccc3)c2)C(F)(F)F)cc1 (centres unmarked) [Compound 1, 1,1,1-trifluoro-2-(4-ethoxyphenyl)-3-(3-phenoxybenzyloxy)propane] | 80 to 100 | 80 to 100 | 80 to 100 | 80 to 100 | 80 to 100 | 80 to 100 | 80 to 100 | 80 to 100 | – |
| Fc1ccc(COCC(Cl)(c2ccc3c(c2)CCC3)C(F)(F)F)cc1Oc1ccccc1 (centres unmarked) [Compound 52, 1,1,1,-Trifluoro-2-chloro-2-(5-indanyl)-3-(3-phenoxy-4-fluorobenzyloxy)propane] | < 50 | < 50 | < 50 | 80 to 100 | 50 to 79 | 80 to 100 | 50 to 79 | < 50 | – |
